Patent US20240208992A1, “MACROCYCLES AS CFTR MODULATORS” (Idorsia Pharmaceuticals Ltd, priority 2021, published 2024)

Biological target: human F508del-CFTR (Homo sapiens, UniProt P13569, DEL508-508)
Assay: F508del-CFTR cell surface expression (corrector activity), DiscoveRx ß-galactosidase complementation chemiluminescence assay in recombinant U2OS cell line;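 also: U2OS cells co-expressing ProLink-tagged F508del-CFTR and a membrane-anchored enzyme acceptor, where more surface CFTR restores β-galactosidase activity measured by chemiluminescence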
Conditions: for EC50: EC50, F508del-CFTR cell surface expression, U2OS cells, 16h compound incubation, geomean values; for Emax: U2OS, in relation to Emax of corrector lumacaftor (=100%), arithmetic mean values

Sequence of human F508del-CFTR (P13569 with tags, fused parts or gaps DEL508-508): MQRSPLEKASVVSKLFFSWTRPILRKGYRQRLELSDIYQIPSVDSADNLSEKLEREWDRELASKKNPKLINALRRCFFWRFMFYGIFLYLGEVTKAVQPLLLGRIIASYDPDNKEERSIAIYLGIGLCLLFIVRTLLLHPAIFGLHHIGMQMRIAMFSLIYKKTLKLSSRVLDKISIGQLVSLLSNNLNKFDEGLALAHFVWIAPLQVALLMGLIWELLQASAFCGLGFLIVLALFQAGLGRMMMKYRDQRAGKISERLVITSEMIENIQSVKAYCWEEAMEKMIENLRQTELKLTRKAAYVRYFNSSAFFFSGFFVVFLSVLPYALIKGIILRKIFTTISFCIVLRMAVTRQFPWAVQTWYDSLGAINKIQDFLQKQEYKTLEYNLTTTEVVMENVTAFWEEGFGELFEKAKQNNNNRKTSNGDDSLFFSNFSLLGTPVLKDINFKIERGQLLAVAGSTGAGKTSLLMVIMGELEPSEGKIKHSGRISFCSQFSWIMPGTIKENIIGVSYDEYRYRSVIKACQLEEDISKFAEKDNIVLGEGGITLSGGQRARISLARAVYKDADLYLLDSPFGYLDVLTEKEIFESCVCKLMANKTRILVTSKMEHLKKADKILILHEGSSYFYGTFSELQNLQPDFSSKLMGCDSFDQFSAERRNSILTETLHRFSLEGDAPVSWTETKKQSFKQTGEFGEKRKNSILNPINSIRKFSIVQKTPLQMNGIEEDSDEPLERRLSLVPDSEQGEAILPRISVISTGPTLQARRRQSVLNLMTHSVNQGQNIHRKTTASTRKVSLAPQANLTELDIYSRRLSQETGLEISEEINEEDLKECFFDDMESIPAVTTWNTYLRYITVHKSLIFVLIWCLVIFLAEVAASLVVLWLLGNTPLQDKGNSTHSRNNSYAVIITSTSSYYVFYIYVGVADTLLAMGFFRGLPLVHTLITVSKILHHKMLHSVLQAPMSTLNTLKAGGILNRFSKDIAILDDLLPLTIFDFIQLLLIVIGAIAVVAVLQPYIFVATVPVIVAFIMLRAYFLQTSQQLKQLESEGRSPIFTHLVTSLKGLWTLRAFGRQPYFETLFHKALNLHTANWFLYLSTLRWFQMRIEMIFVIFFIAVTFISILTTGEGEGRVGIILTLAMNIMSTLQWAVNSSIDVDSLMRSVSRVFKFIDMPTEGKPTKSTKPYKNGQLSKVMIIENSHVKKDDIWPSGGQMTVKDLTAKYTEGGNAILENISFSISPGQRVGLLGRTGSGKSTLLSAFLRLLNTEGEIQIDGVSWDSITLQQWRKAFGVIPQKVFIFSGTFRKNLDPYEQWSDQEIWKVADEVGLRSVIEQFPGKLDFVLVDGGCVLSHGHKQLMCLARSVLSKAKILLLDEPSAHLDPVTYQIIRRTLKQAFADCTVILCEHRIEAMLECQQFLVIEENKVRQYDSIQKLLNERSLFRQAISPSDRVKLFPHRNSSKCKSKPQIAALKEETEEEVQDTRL

| SMILES | EC50 | Emax |
| --- | --- | --- |
| CC(C)C[C@H]1C(=O)N2CCCC[C@H]2C(=O)N[C@H](Cc2ccccc2)COc2ccc3ncc(F)cc3c2C(=O)N[C@H](C(=O)NCCn2ncc(C3CC3)n2)CC(=O)N1C [Example 779, (9S,13S,19aS,22R)-22-benzyl-N-(2-(4-cyclopropyl-2H-1,2,3-triazol-2-yl)ethyl)-5-fluoro-13-isobutyl-12-methyl-7,11,14,20-tetraoxo-7,8,9,10,11,12,13,14,17,18,19,19a,20,21,22,23-hexadecahydro-16H-pyrido[2′,11:6,7][1]oxa[4,7,10,14]tetraazacycloheptadecino[16,17-f]quinoline-9-carboxamide] | 811 nM | 213% |
| CC(C)C[C@H]1C(=O)N2CCCC[C@@H]2C(=O)N[C@H](Cc2ccccc2)COc2ccc3ncc(F)cc3c2C(=O)N[C@H](C(=O)NCCc2nc(C3CC3)no2)CC(=O)N1C [Example 780, (9S,13S,19aR,22R)-22-benzyl-N-(2-(3-cyclopropyl-1,2,4-oxadiazol-5-yl)ethyl)-5-fluoro-13-isobutyl-12-methyl-7,11,14,20-tetraoxo-7,8,9,10,11,12,13,14,17,18,19,19a,20,21,22,23-hexadecahydro-16H-pyrido[2′,1′:6,7][1]oxa[4,7,10,14]tetraazacycloheptadecino[16,17-f]quinoline-9-carboxamide] | 116 nM | 280% |
| CC(C)C[C@H]1C(=O)N2CCCC[C@@H]2C(=O)N[C@H](Cc2ccccc2)COc2ccc3ncc(F)cc3c2C(=O)N[C@H](C(=O)NCCc2cc(C3CC3)on2)CC(=O)N1C [Example 781, (9S,13S,19aR,22R)-22-benzyl-N-(2-(5-cyclopropylisoxazol-3-yl)ethyl)-5-fluoro-13-isobutyl-12-methyl-7,11,14,20-tetraoxo-7,8,9,10,11,12,13,14,17,18,19,19a,20,21,22,23-hexadecahydro-16H-pyrido[2′,1′:6,7][1]oxa[4,7,10,14]tetraazacycloheptadecino[16,17-f]quinoline-9-carboxamide] | 124 nM | 296% |
| COc1cccc2c1C(=O)N[C@H](C(=O)NCCc1noc(C3CC3)n1)CC(=O)N(C)[C@@H](CC(C)C)C(=O)N(C)[C@H](Cc1nc(-c3ccc(F)cn3)no1)C(=O)N[C@H](Cc1ccccc1)CO2 [Example 782, (3R,6R,9S,13S)-3-benzyl-N-(2-(5-cyclopropyl-1,2,4-oxadiazol-3-yl)ethyl)-6-((3-(5-fluoropyridin-2-yl)-1,2,4-oxadiazol-5-yl)methyl)-9-isobutyl-16-methoxy-7,10-dimethyl-5,8,11,15-tetraoxo-2,3,4,5,6,7,8,9,10,11,12,13,14,15-tetradecahydropyrido[3,4-p][1]oxa[4,7,10,14]tetraazacycloheptadecine-13-carboxamide] | 859 nM | 439% |
| COc1cc(CCNC(=O)[C@@H]2CC(=O)N(C)[C@@H](CC(C)C)C(=O)N(C)[C@H](Cc3nc(-c4ccc(F)cn4)no3)C(=O)N[C@H](Cc3ccccc3)COc3ccnc(OC)c3C(=O)N2)on1 [Example 783, (3R,6R,9S,13S)-3-benzyl-6-((3-(5-fluoropyridin-2-yl)-1,2,4-oxadiazol-5-yl)methyl)-9-isobutyl-16-methoxy-N-(2-(3-methoxyisoxazol-5-yl)ethyl)-7,10-dimethyl-5,8,11,15-tetraoxo-2,3,4,5,6,7,8,9,10,11,12,13,14,15-tetradecahydropyrido[3,4-p][1]oxa[4,7,10,14]tetraazacycloheptadecine-13-carboxamide] | 889 nM | 410% |
| CC(C)C[C@H]1C(=O)N(C)[C@H](C)C(=O)N[C@H](Cc2ccccc2)COc2ccc3ncc(F)cc3c2C(=O)N[C@H](C(=O)NCCn2ncc(C3CC3)n2)CC(=O)N1C [Example 787, (3S,7S,10R,13R)-13-benzyl-N-(2-(4-cyclopropyl-2H-1,2,3-triazol-2-yl)ethyl)-20-fluoro-7-isobutyl-6,9,10-trimethyl-1,5,8,11-tetraoxo-1,2,3,4,5,6,7,8,9,10,11,12,13,14-tetradecahydro-[1]oxa[4,7,10,14]tetraazacycloheptadecino[16,17-f]quinoline-3-carboxamide] | 190 nM | 323% |
| COc1cccc(CCNC(=O)[C@@H]2CC(=O)N(C)[C@@H](CC(C)C)C(=O)N(C)[C@H](C)C(=O)N[C@H](Cc3ccccc3)COc3ccc4nccn4c3C(=O)N2)c1 [Example 788, (3S,7S,10R,13R)-13-benzyl-7-isobutyl-N-(3-methoxyphenethyl)-6,9,10-trimethyl-1,5,8,11-tetraoxo-1,2,3,4,5,6,7,8,9,10,11,12,13,14-tetradecahydroimidazo[1′,2′:1,6]pyrido[2,3-p][1]oxa[4,7,10,14]tetraazacycloheptadecine-3-carboxamide] | 549 nM | 344% |
| COc1cc(CCNC(=O)[C@@H]2CC(=O)N(C)[C@@H](CC(C)C)C(=O)N(C)[C@H](C)C(=O)N[C@H](Cc3ccccc3)COc3ccc4nccn4c3C(=O)N2)on1 [Example 789, (3S,7S,10R,13R)-13-benzyl-7-isobutyl-N-(2-(3-methoxyisoxazol-5-yl)ethyl)-6,9,10-trimethyl-1,5,8,11-tetraoxo-1,2,3,4,5,6,7,8,9,10,11,12,13,14-tetradecahydroimidazo[1′,2′:1,6]pyrido[2,3-p][1]oxa[4,7,10,14]tetraazacycloheptadecine-3-carboxamide] | 675 nM | 358% |
| CC(C)C[C@H]1C(=O)N(C)[C@H](C)C(=O)N[C@H](Cc2ccccc2)COc2ccc3nccn3c2C(=O)N[C@H](C(=O)NCCc2cc(C3CC3)no2)CC(=O)N1C [Example 790, (3S,7S,10R,13R)-13-benzyl-N-(2-(3-cyclopropylisoxazol-5-yl)ethyl)-7-isobutyl-6,9,10-trimethyl-1,5,8,11-tetraoxo-1,2,3,4,5,6,7,8,9,10,11,12,13,14-tetradecahydroimidazo[1′,2′:1,6]pyrido[2,3-p][1]oxa[4,7,10,14]tetraazacycloheptadecine-3-carboxamide] | 650 nM | 350% |
| CC(C)C[C@H]1C(=O)N2CCCC[C@H]2C(=O)N[C@H](Cc2ccccc2)COc2ccc3ncc(F)cc3c2C(=O)N[C@H](C(=O)NCCc2noc(C3CC3)n2)CC(=O)N1C [Example 793, (9S,13S,19aS,22R)-22-benzyl-N-(2-(5-cyclopropyl-1,2,4-oxadiazol-3-yl)ethyl)-5-fluoro-13-isobutyl-12-methyl-7,11,14,20-tetraoxo-7,8,9,10,11,12,13,14,17,18,19,19a,20,21,22,23-hexadecahydro-16H-pyrido[2′,11:6,7][1]oxa[4,7,10,14]tetraazacycloheptadecino[16,17-f]quinoline-9-carboxamide] | 235 nM | 105% |

Other lines, results leading:

| EC50 | Emax | SMILES |
| --- | --- | --- |
| 311 nM | 391% | CC[C@@H]1C(=O)N[C@H](Cc2ccccc2)COc2cc(C)nc(OC)c2C(=O)N[C@H](C(=O)NCCc2cc(OC)no2)CC(=O)N(C)[C@@H](CC(C)C)C(=O)N1C [Example 784, (3R,6R,9S,13S)-3-benzyl-6-ethyl-9-isobutyl-16-methoxy-N-(2-(3-methoxyisoxazol-5-yl)ethyl)-7,10,18-trimethyl-5,8,11,15-tetraoxo-2,3,4,5,6,7,8,9,10,11,12,13,14,15-tetradecahydropyrido[3,4-p][1]oxa[4,7,10,14]tetraazacycloheptadecine-13-carboxamide] |
| 210 nM | 365% | COc1cc(CCNC(=O)[C@@H]2CC(=O)N(C)[C@@H](CC(C)C)C(=O)N(C)[C@H](CC(F)F)C(=O)N[C@H](Cc3ccccc3)COc3cc(C)nc(OC)c3C(=O)N2)on1 [Example 785, (3R,6R,9S,13S)-3-benzyl-6-(2,2-difluoroethyl)-9-isobutyl-16-methoxy-N-(2-(3-methoxyisoxazol-5-yl)ethyl)-7,10,18-trimethyl-5,8,11,15-tetraoxo-2,3,4,5,6,7,8,9,10,11,12,13,14,15-tetradecahydropyrido[3,4-p][1]oxa[4,7,10,14]tetraazacycloheptadecine-13-carboxamide] |
| 156 nM | 337% | COc1cc(CCNC(=O)[C@@H]2CC(=O)N(C)[C@@H](CC(C)C)C(=O)N(C)[C@H](C)C(=O)N[C@H](Cc3ccccc3)COc3ccc4ncc(F)cc4c3C(=O)N2)on1 [Example 786, (3S,7S,10R,13R)-13-benzyl-20-fluoro-7-isobutyl-N-(2-(3-methoxyisoxazol-5-yl)ethyl)-6,9,10-trimethyl-1,5,8,11-tetraoxo-1,2,3,4,5,6,7,8,9,10,11,12,13,14-tetradecahydro-[1]oxa[4,7,10,14]tetraazacycloheptadecino[16,17-f]quinoline-3-carboxamide] |
| 80 nM | 345% | COc1cc(CCNC(=O)[C@@H]2CC(=O)N(C)[C@@H](CC(C)C)C(=O)N(C)[C@H](CC(F)(F)F)C(=O)N[C@H](Cc3ccccc3)COc3cc(C)nc(OC)c3C(=O)N2)on1 [Example 791, (3R,6R,9S,13S)-3-benzyl-9-isobutyl-16-methoxy-N-(2-(3-methoxyisoxazol-5-yl)ethyl)-7,10,18-trimethyl-5,8,11,15-tetraoxo-6-(2,2,2-trifluoroethyl)-2,3,4,5,6,7,8,9,10,11,12,13,14,15-tetradecahydropyrido[3,4-p][1]oxa[4,7,10,14]tetraazacycloheptadecine-13-carboxamide] |
| 628 nM | 261% | COc1cc(CCNC(=O)[C@@H]2CC(=O)N(C)[C@@H](CC(C)C)C(=O)N(C)[C@@H](CC(F)(F)F)C(=O)N[C@H](Cc3ccccc3)COc3cc(C)nc(OC)c3C(=O)N2)on1 [Example 792, (3R,6S,9S,13S)-3-benzyl-9-isobutyl-16-methoxy-N-(2-(3-methoxyisoxazol-5-yl)ethyl)-7,10,18-trimethyl-5,8,11,15-tetraoxo-6-(2,2,2-trifluoroethyl)-2,3,4,5,6,7,8,9,10,11,12,13,14,15-tetradecahydropyrido[3,4-p][1]oxa[4,7,10,14]tetraazacycloheptadecine-13-carboxamide] |
